Assays:
[1] = Mucolytic activity in vitro: modification of human sputum density by thromboelastograph (method of Morandini et al.)
Method: The tests were carried out in vitro by using the method disclosed by Morandini et al. (Lotta contro la tubercolosi 47, n. 4, 1977). A thromboelastograph was used to follow the variations induced by the compounds of general formula (I) and acetylcysteine on the rheological properties of human sputum.

[2] = Acute toxicity, LD50 by the Weil method, e.p. administration in mouse; conditions: in vivo, ip, Weil method N = 4, K = 4
Source text: LD50 of the compounds of general formula (I) assessed with the Weil method ("Tables for convenient calculation of median effective dose (LD50 or ED50) and instructions in their use", Biometrics, 249-253, 1952), by e.p. administration in mouse is shown in Table 1.
LD50 and fiducial limits, mg/Kg e.p., of the compounds of for-
mula (I). Weil method N = 4, K = 4.

bronchial secretion = test: Expectorant activity: bronchial secretion in anesthetized rabbits (method of Perry et al.); format: in vivo; conditions: oral, rabbit, 20 to 40 mg
Method: The tests were carried out on male rabbits, weighing 2-3 Kg, anesthetized with ethyl urethane, by following the method disclosed by Perry et al. (J. Pharm. Exp. Ther. 73, 65, 1941).
Each cannula was connected to a feeding device which delivered a steady flow-rate of pre-heated air (36°-38° C.) at constant humidity (80%). At the lower end of each cannula, a graduated cylinder was fitted, wherein the bronchial secretion was collected. All of the animals breathed spontaneously and consequently they self-regulated the air intake suitable for normal respiration. After an hour following cannula insertion, the animals were administered oraly (by stomach tube) the compounds of general formula (I) dissolved in distilled water at doses comprised between 20 and 40 mg. […] The control animals (8) were given water only. The amount of secretion was determined after 1, 2 and 4 hours from administration.

| Structure (SMILES) | Percentage drop of the tracing versus maximum peak (mucolytic activity index) ([1]; after addition of 1 ml of a 10% solution at dilution 1/30) | Percentage drop of the tracing versus maximum peak (mucolytic activity index) ([1]; after addition of 1 ml of a 10% solution at dilution 1/60) | LD50 [2] | Percentage variations ± s.e. of bronchial secretion versus basal values (bronchial secretion; 1 hour after administration) | Percentage variations ± s.e. of bronchial secretion versus basal values (bronchial secretion; 2 hours after administration) | Percentage variations ± s.e. of bronchial secretion versus basal values (bronchial secretion; 4 hours after administration) |
| --- | --- | --- | --- | --- | --- | --- |
| CC(=O)N[C@@H](CS)C(=O)O [Acetylcysteine, acetylcysteine] | 84 Percentage | 55 Percentage |  |  |  |  |
| CC(=O)SCCC(=O)OC(CC(=O)O)C[N+](C)(C)C (centres unmarked) [ST-405, 3-thioacetyl propionyl-carnitine] |  |  | 378 mg/kg | +1.1 ± 0.03 Percentage | +1.9 ± 0.04 Percentage | +3.6 ± 0.05 Percentage |
| CC(=O)SC(C)CC(=O)OC(CC(=O)O)C[N+](C)(C)C (centres unmarked) [ST-406, 3-thioacetyl butyryl carnitine] |  |  | 97 mg/kg | +1.4 ± 0.05 Percentage | +1.9 ± 0.05 Percentage | +3.4 ± 0.04 Percentage |
| CC(=O)SCCCCC(=O)OC(CC(=O)O)C[N+](C)(C)C (centres unmarked) [ST-412, 5-thioacetyl pentanoyl-carnitine] |  |  | 1540 mg/kg | +1.3 ± 0.04 Percentage | +2.1 ± 0.05 Percentage | +3.1 ± 0.03 Percentage |
